Results: PubChem BioAssay (NCI)
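All cell lines were grown in 96-well plates and treated with compound for 48 hours. GI50: concentration for 50% inhibition of growth. TGI denotes the concentration required for complete inhibition of growth.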

System: 786-0 renal
Assay: NCI-60 cell line screen, 48 h

Row | SMILES | TGI | GI50
1 | CN1C2CCC1CC(=CCOC(c1ccc(F)cc1)c1ccc(F)cc1)C2 | 27.9 µM | 
2 | Nc1c(C(=O)Nc2ccncc2)sc2nc3c(cc12)CCCCCCCC3 | 1.66 µM | 0.93 µM
3 | Cc1ncc(C(=O)Nc2ccc(CN3CCN(C)CC3)c(C(F)(F)F)c2)cc1C#Cc1cnc(N)c2ccncc12 | 3.3 µM | 1.35 µM
4 | C#C[C@]1(O)CCC2C3CCc4cc(O)ccc4C3CC[C@@]21C (some centres not stated) | 21.9 µM | 5.08 µM

System: A498 renal
Assay: NCI-60 cell line screen, 48 h

Row | SMILES | TGI | GI50
5 | CN1C2CCC1CC(=CCOC(c1ccc(F)cc1)c1ccc(F)cc1)C2 | 28.7 µM | 
6 | Nc1c(C(=O)Nc2ccncc2)sc2nc3c(cc12)CCCCCCCC3 | 1.58 µM | 0.871 µM
7 | Cc1ncc(C(=O)Nc2ccc(CN3CCN(C)CC3)c(C(F)(F)F)c2)cc1C#Cc1cnc(N)c2ccncc12 | 2.92 µM | 1.35 µM
8 | C#C[C@]1(O)CCC2C3CCc4cc(O)ccc4C3CC[C@@]21C (some centres not stated) | 18.3 µM | 4.62 µM

System: A549 NSCLC
Assay: NCI-60 cell line screen, 48 h

Row | SMILES | TGI | GI50
9 | CN1C2CCC1CC(=CCOC(c1ccc(F)cc1)c1ccc(F)cc1)C2 | 32.4 µM | 
10 | Nc1c(C(=O)Nc2ccncc2)sc2nc3c(cc12)CCCCCCCC3 | 2 µM | 1.01 µM
11 | Cc1ncc(C(=O)Nc2ccc(CN3CCN(C)CC3)c(C(F)(F)F)c2)cc1C#Cc1cnc(N)c2ccncc12 | 4.24 µM | 1.78 µM
12 | C#C[C@]1(O)CCC2C3CCc4cc(O)ccc4C3CC[C@@]21C (some centres not stated) | > 100 µM | 5.81 µM

System: ACHN renal
Assay: NCI-60 cell line screen, 48 h

Row | SMILES | TGI | GI50
13 | CN1C2CCC1CC(=CCOC(c1ccc(F)cc1)c1ccc(F)cc1)C2 | 31.8 µM | 
14 | Nc1c(C(=O)Nc2ccncc2)sc2nc3c(cc12)CCCCCCCC3 | 1.6 µM | 0.889 µM
15 | Cc1ncc(C(=O)Nc2ccc(CN3CCN(C)CC3)c(C(F)(F)F)c2)cc1C#Cc1cnc(N)c2ccncc12 | 1.5 µM | 0.303 µM
16 | C#C[C@]1(O)CCC2C3CCc4cc(O)ccc4C3CC[C@@]21C (some centres not stated) | 85.1 µM | 9.42 µM

System: BT-549 breast
Assay: NCI-60 cell line screen, 48 h

Row | SMILES | TGI | GI50
17 | CN1C2CCC1CC(=CCOC(c1ccc(F)cc1)c1ccc(F)cc1)C2 | 30.1 µM | 
18 | Nc1c(C(=O)Nc2ccncc2)sc2nc3c(cc12)CCCCCCCC3 | 1.6 µM | 0.838 µM
19 | Cc1ncc(C(=O)Nc2ccc(CN3CCN(C)CC3)c(C(F)(F)F)c2)cc1C#Cc1cnc(N)c2ccncc12 | 8.33 µM | 2.85 µM
20 | C#C[C@]1(O)CCC2C3CCc4cc(O)ccc4C3CC[C@@]21C (some centres not stated) | 18.4 µM | 4.64 µM

System: CAKI-1 renal
Assay: NCI-60 cell line screen, 48 h

Row | SMILES | TGI | GI50
21 | CN1C2CCC1CC(=CCOC(c1ccc(F)cc1)c1ccc(F)cc1)C2 | 30.6 µM | 
22 | Nc1c(C(=O)Nc2ccncc2)sc2nc3c(cc12)CCCCCCCC3 | 1.49 µM | 0.805 µM
23 | Cc1ncc(C(=O)Nc2ccc(CN3CCN(C)CC3)c(C(F)(F)F)c2)cc1C#Cc1cnc(N)c2ccncc12 | 2.66 µM | 1.11 µM
24 | C#C[C@]1(O)CCC2C3CCc4cc(O)ccc4C3CC[C@@]21C (some centres not stated) | 87 µM | 9.15 µM

System: CCRF-CEM leukemia
Assay: NCI-60 cell line screen, 48 h

Row | SMILES | TGI | GI50
25 | CN1C2CCC1CC(=CCOC(c1ccc(F)cc1)c1ccc(F)cc1)C2 | > 100 µM | 
26 | Nc1c(C(=O)Nc2ccncc2)sc2nc3c(cc12)CCCCCCCC3 | 3.26 µM | 1.3 µM
27 | Cc1ncc(C(=O)Nc2ccc(CN3CCN(C)CC3)c(C(F)(F)F)c2)cc1C#Cc1cnc(N)c2ccncc12 | 10.8 µM | 2.73 µM

System: COLO 205 colon
Assay: NCI-60 cell line screen, 48 h

Row | SMILES | TGI | GI50
28 | CN1C2CCC1CC(=CCOC(c1ccc(F)cc1)c1ccc(F)cc1)C2 | 30.5 µM | 
29 | Nc1c(C(=O)Nc2ccncc2)sc2nc3c(cc12)CCCCCCCC3 | 2.18 µM | 0.997 µM
30 | Cc1ncc(C(=O)Nc2ccc(CN3CCN(C)CC3)c(C(F)(F)F)c2)cc1C#Cc1cnc(N)c2ccncc12 | 2.04 µM | 0.687 µM
31 | C#C[C@]1(O)CCC2C3CCc4cc(O)ccc4C3CC[C@@]21C (some centres not stated) | 14 µM | 3.86 µM

System: DU-145 prostate
Assay: NCI-60 cell line screen, 48 h

Row | SMILES | TGI | GI50
32 | CN1C2CCC1CC(=CCOC(c1ccc(F)cc1)c1ccc(F)cc1)C2 | 30.5 µM | 
33 | Nc1c(C(=O)Nc2ccncc2)sc2nc3c(cc12)CCCCCCCC3 | 1.72 µM | 0.944 µM
34 | Cc1ncc(C(=O)Nc2ccc(CN3CCN(C)CC3)c(C(F)(F)F)c2)cc1C#Cc1cnc(N)c2ccncc12 | 3.27 µM | 1.1 µM
35 | C#C[C@]1(O)CCC2C3CCc4cc(O)ccc4C3CC[C@@]21C (some centres not stated) | 23.5 µM | 6.71 µM

System: EKVX NSCLC
Assay: NCI-60 cell line screen, 48 h

Row | SMILES | TGI | GI50
36 | CN1C2CCC1CC(=CCOC(c1ccc(F)cc1)c1ccc(F)cc1)C2 | 40.8 µM | 
37 | Nc1c(C(=O)Nc2ccncc2)sc2nc3c(cc12)CCCCCCCC3 | 1.63 µM | 0.851 µM
38 | Cc1ncc(C(=O)Nc2ccc(CN3CCN(C)CC3)c(C(F)(F)F)c2)cc1C#Cc1cnc(N)c2ccncc12 | 3.38 µM | 1.14 µM
39 | C#C[C@]1(O)CCC2C3CCc4cc(O)ccc4C3CC[C@@]21C (some centres not stated) | > 100 µM | 1.66 µM

System: HCC-2998 colon
Assay: NCI-60 cell line screen, 48 h

Row | SMILES | TGI | GI50
40 | CN1C2CCC1CC(=CCOC(c1ccc(F)cc1)c1ccc(F)cc1)C2 | 13.3 µM | 
41 | Nc1c(C(=O)Nc2ccncc2)sc2nc3c(cc12)CCCCCCCC3 | 1.63 µM | 0.9 µM
42 | Cc1ncc(C(=O)Nc2ccc(CN3CCN(C)CC3)c(C(F)(F)F)c2)cc1C#Cc1cnc(N)c2ccncc12 | 3.39 µM | 1.86 µM
43 | C#C[C@]1(O)CCC2C3CCc4cc(O)ccc4C3CC[C@@]21C (some centres not stated) | 63.5 µM | 9.88 µM

System: HCT-116 colon
Assay: NCI-60 cell line screen, 48 h

Row | SMILES | TGI | GI50
44 | CN1C2CCC1CC(=CCOC(c1ccc(F)cc1)c1ccc(F)cc1)C2 | 24.6 µM | 
45 | Cc1ncc(C(=O)Nc2ccc(CN3CCN(C)CC3)c(C(F)(F)F)c2)cc1C#Cc1cnc(N)c2ccncc12 | 2.56 µM | 1.19 µM
46 | C#C[C@]1(O)CCC2C3CCc4cc(O)ccc4C3CC[C@@]21C (some centres not stated) | 20 µM | 4.68 µM

System: HCT-15 colon
Assay: NCI-60 cell line screen, 48 h

Row | SMILES | TGI | GI50
47 | CN1C2CCC1CC(=CCOC(c1ccc(F)cc1)c1ccc(F)cc1)C2 | 29.6 µM | 
48 | Nc1c(C(=O)Nc2ccncc2)sc2nc3c(cc12)CCCCCCCC3 | 1.8 µM | 0.962 µM
49 | Cc1ncc(C(=O)Nc2ccc(CN3CCN(C)CC3)c(C(F)(F)F)c2)cc1C#Cc1cnc(N)c2ccncc12 | 4.42 µM | 1.26 µM
50 | C#C[C@]1(O)CCC2C3CCc4cc(O)ccc4C3CC[C@@]21C (some centres not stated) | 73 µM | 4.9 µM

System: HL-60(TB) leukemia
Assay: NCI-60 cell line screen, 48 h

Row | SMILES | TGI | GI50
51 | CN1C2CCC1CC(=CCOC(c1ccc(F)cc1)c1ccc(F)cc1)C2 | 43.5 µM | 
52 | Nc1c(C(=O)Nc2ccncc2)sc2nc3c(cc12)CCCCCCCC3 | 2.19 µM | 0.948 µM
53 | Cc1ncc(C(=O)Nc2ccc(CN3CCN(C)CC3)c(C(F)(F)F)c2)cc1C#Cc1cnc(N)c2ccncc12 | 4.06 µM | 0.79 µM
54 | C#C[C@]1(O)CCC2C3CCc4cc(O)ccc4C3CC[C@@]21C (some centres not stated) | 24.2 µM | 3.45 µM

System: HOP-62 NSCLC
Assay: NCI-60 cell line screen, 48 h

Row | SMILES | TGI | GI50
55 | CN1C2CCC1CC(=CCOC(c1ccc(F)cc1)c1ccc(F)cc1)C2 | 32.2 µM | 
56 | Cc1ncc(C(=O)Nc2ccc(CN3CCN(C)CC3)c(C(F)(F)F)c2)cc1C#Cc1cnc(N)c2ccncc12 | 3.18 µM | 1.38 µM
